As usually defined, the aqueous solubility is how much of the substance goes into solution per volume.

We go through two compounds from patent publication US9724344B2, “Enhanced delivery of drug compositions to treat life threatening infections” (BOARD OF REGENTS, THE UNIVERSITY OF TEXAS SYSTEM, priority 2004, dated 2017).

A short description of data set [1]: Dissolution testing, United States Pharmacopeia 24 Type 2 apparatus (Examples 19-23). The data set is classed as physicochemical. To be noted: Avg. As to the method:
For Examples 19-23, dissolution testing is performed on the samples using a United States Pharmacopeia 24 Type 2 apparatus (Distek Dissolution System […] with a TCS0200C heater/circulator; Crescent Scientific Pvt. Ltd.; Goregaon-East, Mumbai, India).

A further data set deals with airway macrophages. Put plainly: Macrophage uptake of ITZ dosed via pulmonary administration. The class given is in vivo. The conditions noted are these: samples taken on days 1, 3, 8 and 12. The text has this: Cells (airway macrophages) were recovered from the lung and subjected to drug extraction and analyzed by mass spectroscopy for confirmation of ITZ presence in the macrophage.

The conditions of data set [2]: cited from earlier work.
A further data set deals with IL-12p70. In words: ELISA of BAL supernatant for IL-12 elevation (inflammatory response). The data set is classed as in vivo, mice. To be noted: pulmonary administration, compared to excipients alone and saline. As to the method: FIG. 5 is a chart depicting lung concentration levels of IL-12p70 for an embodiment of the present invention. Mean IL-12p70 concentrations measured according to Example 32 via ELISA assay of the positive control, negative control and BAL supernatants of sacrificed mice. Surgery was performed on sacrificed mice to expose the pleural cavity and trachea at the throat. A small incision was cut into the trachea and a cannula consisting of a 23 gauge needle with a sheath of plastic tubing (0.037″ outside diameter (OD) and 0.025″ ID) was inserted through the incision to the base of the trachea and clamped to seal the opening. An aliquot (0.75 mL) of phosphate buffered saline was instilled through the cannula into the lungs and then removed to wash the bronchial and alveolar surfaces. This process was repeated for a total of three washes. The phosphate buffered saline containing cells was placed into centrifuge vials and centrifuged at 300 rpm (MiniSpin Plus. Eppendorf International, Hamburg, Del.). The supernatant was removed leaving the collected cells in the pellet. The supernatant from the BAL (Bronchoalveolar Lavage) was analyzed by enzyme-linked immunosorbent assay (ELISA) for IL-12 elevation (n=2 per sample tested).
On the technique in general: ELISA stands for enzyme-linked immunosorbent assay.

Take `CCC(C)n1ncn(-c2ccc(N3CCN(c4ccc(OCC5COC(Cn6cncn6)(c6ccc(Cl)cc6Cl)O5)cc4)CC3)cc2)c1=O` (stereo not drawn) [Comparative Example 25]: the “Percent Dissolved” value in data set [1] (2 minutes) was 3.1%; in data set [1] (5 minutes) it was 4.8%; in data set [1] (10 minutes), 9.1%; in data set [1] (15 minutes) it was 12.7%; in data set [1] (20 minutes) it was 15.5%; in data set [1] (25 minutes), 18.2%. In addition, the entries for the “Percent Dissolved” value in data set [1] (30 minutes), in data set [1] (60 minutes) and in data set [1] (120 minutes) were 19.7%, 38.9% and 100.0%, respectively.

As to `CCC(C)n1ncn(-c2ccc(N3CCN(c4ccc(OCC5COC(Cn6cncn6)(c6ccc(Cl)cc6Cl)O5)cc4)CC3)cc2)c1=O` (stereo not drawn) [ITZ, itraconazole], the “ITZ presence in airway macrophages (mass spectroscopy)” value in the data set on airway macrophages is recorded as “all showed the presence of ITZ”. The aqueous solubility in data set [2] is less than 1 µg/mL. In addition, the “IL-12 elevation in BAL supernatant” value in the data set on IL-12p70 is on record as “does not result in IL-12 elevation”.
